Experimental findings from patent publication US20240269298A1, “PHOSPHONYL DERIVATIVE, AND COMPOSITION AND PHARMACEUTICAL APPLICATION THEREOF” (XIZANG HAISCO PHARMACEUTICAL CO., LTD., priority 2021, published 2024) are described below.

Each structure is given as a SMILES string. Read-outs that look alike come from different tables or passages of the source. Some results are limits rather than exact numbers.

In data set [1] the test system is NCI-H1975 EGFR-L858R-T790M-C797S cells. Nature of the data set: Inhibitory activity on proliferation of NCI-H1975 EGFR-L858R-T790M-C797S cells (CellTiter-Glo, 72 h). The note with it: Homo sapiens. Format: cell-based. Summed up: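 Cells (1500/well) exposed to graded compound concentrations for 72 h at 37 °C in hygromycin-free RPMI1640 + 10% FBS, 0.1% DMSO vehicle. Viability by CellTiter-Glo luminescence relative to vehicle; IC50 from nonlinear sigmoidal dose-survival fit.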

For the next data set, the system named is A431 (EGFR-WT) cells. Nature of the data set: Inhibitory activity on proliferation of A431 (EGFR-WT) cells (CTG, 72 h). Format: cell-based. The note with it: Homo sapiens, A-431. In a few lines: (§1)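 IC50 values come from S-shaped dose-survival fits of CTG signal expressed as % of vehicle. Compound exposure lasted 72 h at 37 °C with 0.1% DMSO; seeding was 3000 A431 cells/well in DMEM+10% FBS and 1000 NCI-H1975 cells/well in RPMI1640+10% FBS.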

Data set [2] deals with Ba/F3-TEL-EGFR-T790M-L858R-C797S cells. The data set is described as follows: Inhibitory activity on proliferation of Ba/F3-TEL-EGFR-T790M-L858R-C797S cells (CellTiter-Glo, 72 h). Format: cell-based. As to the method: Ba/F3-TEL-EGFR-T790M-L858R-C797S cells were cultured in an incubator at 37° C. with 5% CO2. The cells in the logarithmic phase were collected, counted and plated in a 96-well plate at a density of 2000 cells/well. The compounds at different concentrations were added, and a vehicle control group (cells plus DMSO) and a blank control group (cell culture mediums plus DMSO) were provided, wherein the concentration of DMSO was both 0.1%. The cell culture plate was cultured in an incubator at 37° C. with 5% CO2 for 72 hours. After the incubation was completed, the cell culture plate was removed and allowed to equilibrate to room temperature for 10 min. […] The plate was placed at room temperature for 10 min, and then […] signal values were measured using a microplate reader (SpectraMax Paradigm). […] The inhibition rates corresponding to different concentrations of compounds were calculated, and using the GraphPad Prism software, the inhibition rate curves were plotted, and IC50 values were calculated. wherein RLUDrug was the readout of the drug-treated group, RLUMax was the readout of the control group, and RLUMin was the readout of the blank group.

The nature of data set [3]: Pharmacokinetic test in mice. The data set is classed as in vivo. Particulars: male, ICR, mouse, po, administration i.g. (10 mg/kg), plasma. Summed up:
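Male ICR mice (20-25 g), fasted 12-14 h before dosing and fed 4 h after, received a single intravenous or intragastric dose. Orbital plasma sampled from 0 to 24 h (5 min-24 h points); LC-MS/MS quantitation for PK parameters and bioavailability.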

The test system of data set [4] is NCI-H1975 (EGFR-L858R-T790M) cells. Nature of the data set: Inhibitory activity on proliferation of NCI-H1975 (EGFR-L858R-T790M) cells (CTG, 72 h). The note with it: Homo sapiens. The data set is classed as cell-based. In a few lines:
as §1

Where [5] appears, read: read-out: IC50 (value in brackets).

Turning to `COc1cc(N2CCC(CN3CCN(c4ccc5c(c4)C(=O)N(C4CCC(=O)NC4=O)C5=O)CC3)CC2)c(-c2cnn(C)c2)cc1Nc1ncc(Cl)c(Nc2ccc(C3CC3)cc2P(C)(C)=O)n1` (stereo not shown) [Compound 107, 5-(4-((1-(4-((5-chloro-4-((4-cyclopropyl-2-(dimethylphosphoryl)phenyl)amino)pyrimidin-2-yl)amino)-5-methoxy-2-(1-methyl-1H-pyrazol-4-yl)phenyl)piperidin-4-yl)methyl)piperazin-1-yl)-2-(2,6-dioxopiperidin-3-yl)isoindoline-1,3-dione], the IC50 in data set [1] (read-out: IC50 (class symbol)) is less than 200 nM; in data set [1] (read-out: IC50 (value)), 45 nM; in the data set on A431 (EGFR-WT) cells, not below 10000 nM; in data set [2], 15.6 nM; in data set [4] (read-out: IC50 (class symbol)), less than 100 nM; in data set [4] (setting [5]), 56 nM. The same compound yielded an AUC in data set [3] of 130 µg·h/mL. The half-life in data set [3] is 13.9 h.
On to `COc1cc(N2CCC(CN3CCN(c4ccc5c(c4)C(=O)N(C4CCC(=O)NC4=O)C5=O)CC3)CC2)c(-c2cnn(C)c2)cc1Nc1ncc(Br)c(Nc2ccc(C3CC3)cc2P(C)(C)=O)n1` (stereo not shown) [Compound 106, 5-(4-((1-(4-((5-bromo-4-((4-cyclopropyl-2-(dimethylphosphoryl)phenyl)amino)pyrimidin-2-yl)amino)-5-methoxy-2-(1-methyl-1H-pyrazol-4-yl)phenyl)piperidin-4-yl)methyl)piperazin-1-yl)-2-(2,6-dioxopiperidin-3-yl)isoindoline-1,3-dione], for which the concentration for half-maximal inhibition (IC50) was less than 200 nM in data set [1] (read-out: IC50 (class symbol)); 112 nM in data set [1] (read-out: IC50 (value)); not below 10000 nM in the data set on A431 (EGFR-WT) cells; 15.6 nM in data set [2]; less than 100 nM in data set [4] (read-out: IC50 (class symbol)); 54 nM in data set [4] (setting [5]). Besides, the AUC in data set [3] was determined as 145 µg·h/mL. This compound showed a half-life in data set [3] of 18 h.
